Measured values reported in article PMC5695697 (Cell chemical biology, 2017).

What was measured:
[1] = 2010, cited from earlier work
PGRN protein = assay type: cell-based, human
[2] = tested on: recombinant human Class I HDACs (HDAC1, HDAC2, HDAC3); assay: In vitro HDAC enzymatic assay with varied pre-incubation time; assay type: biochemical; details: pre-incubation 0–3 hours, Figure S5
GRN mRNA = GRN mRNA expression by qPCR in human iPSC-derived NPCs and neurons; assay type: cell-based
FXN mRNA = assay: FXN; assay type: cell-based, human; details: 18-day neurons, 24 h; SAHA 10 μM, CI-994 10 μM, Cpd-60 5 μM
MSR293 cells = assay: GRN mRNA / PGRN expression in MSR293 cells; assay type: cell-based, human; details: MSR293 cells (HEK293 derivative), Figure S3
[3] = tested on: H3K27 acetylation on GRN promoter; assay: H3K27 acetylation ChIP-qPCR on GRN promoter/enhancer region in NPCs; assay type: cell-based, human; details: 24 hours, panobinostat 0.5 μM, CI-994 10 μM; for H3K27 acetylation in ChIP Region 3: to varying levels
H3K9 acetylation = H3K9 acetylation Western blot in human NPCs and neurons; assay type: cell-based; details: ACY-1215 5 μM, tubastatin A 10 μM, CI-994 10 μM, Cpd-60 5 μM (Figure S1)
HDAC = details: ref Schroeder et al., 2013; Chou et al., 2008; cited from earlier work
[4] = human NPCs, CI-994 for up to 72 hours
[5] = human neurons, CI-994 10 μM, 24 h

## CCCC(CCC)C(=O)O [valproate, valproic acid]
[1]; chronic treatment, ref Kalu
  serum concentration: 300 to 700 µM
[1]; read-out: brain concentration Cmax, estimated, ref Goldenberg
  Cmax: 400 µM
PGRN protein; cultured NPCs and neurons, valproate at doses lower than 1 mM (Figure S8)
  increase of PGRN protein expression compared to vehicle: 1.3–1.5 ×
[2]
  change of potency with prolonged incubation (in vitro kinetic profile): did not increase

## O=C(NCC1(c2nc(-c3ccccc3)cs2)CCOCC1)c1cccc(-c2noc(C(F)(F)F)n2)c1 [TMP269]
GRN mRNA; NPCs only (Figure S2)
  increasing GRN mRNA in NPCs: not effective

## O=C(CCCCCCC(=O)Nc1ccccc1)NO [SAHA]
FXN mRNA
  FXN (frataxin) mRNA levels: does not
MSR293 cells
  upregulating GRN mRNA or PGRN: effective

## CC(=O)Nc1ccc(C(=O)Nc2ccccc2N)cc1 [CI-994]
[3]
  H3K27 acetylation in ChIP Region 2: Neither compound treatment increased
  H3K27 acetylation in ChIP Region 3: increased
FXN mRNA
  FXN (frataxin) mRNA levels: significantly increased
H3K9 acetylation
  H3K9 acetylation: significantly increase
PGRN protein; NPCs, CI-994 10 μM, 24 h
  intracellular PGRN: decrease
  secreted PGRN: decrease
PGRN protein; NPCs, CI-994 10 μM, longer treatment times, vs vehicle
  PGRN secreted protein expression, longer treatment times: decreased
PGRN protein; [4]
  PGRN protein levels, extended treatment: did not significnatly enhance
PGRN protein; [5]
  intracellular PGRN protein: statistically significant decrease
GRN mRNA; [4]
  GRN mRNA levels, extended treatment: did not significnatly enhance
GRN mRNA; [5]
  GRN mRNA: statistically significant decrease
[2]
  change of potency with prolonged incubation (in vitro kinetic profile): slow-binder
MSR293 cells
  upregulating GRN mRNA or PGRN: ineffective
HDAC
  binding kinetics, mechanism of action: slow-on/slow-off

## Cc1[nH]c2ccccc2c1CCNCc1ccc(/C=C/C(=O)NO)cc1 [panobinostat]
[3]
  H3K27 acetylation in ChIP Region 1 on the GRN promoter: significantly increased
  H3K27 acetylation in ChIP Region 2: Neither compound treatment increased
  H3K27 acetylation in ChIP Region 3: increased

## O=C(CCCCCCNC(=O)c1cnc(N(c2ccccc2)c2ccccc2)nc1)NO [ACY-1215]
H3K9 acetylation
  H3K9 acetylation: as strong of an induction

## CCC(=O)CCCCC[C@@H]1NC(=O)[C@H]2CCCCN2C(=O)[C@H]([C@@H](C)CC)NC(=O)[C@H](Cc2cn(OC)c3ccccc23)NC1=O [apicidin]
[2]
  change of potency with prolonged incubation (in vitro kinetic profile): did not increase

## CN1CCc2c(c3ccccc3n2Cc2ccc(C(=O)NO)cc2)C1 [Tubastatin A]
H3K9 acetylation
  H3K9 acetylation: robust effect
